Test system: C. difficile
Experiment: CDAD treatment in hamsters infected with C. difficile
Format: in vivo
Conditions: for survival of hamsters infected with C. difficile: treated at the time of infection
Description: Optimal dosages and formulations of Rifalazil alone, or in combination with a second drug compound, can be determined using standard animal models known in the art. One example of an animal model for C. difficile associated disease is the Golden Syrian hamster. To determine the optimal dosage regimen of Rifalazil, Golden Syrian hamsters are injected subcutaneously with clindamycin phosphate (10 mg/kg) followed, 24 hours later, by oral gavage with 10^5 colony forming units (CFU) of C. difficile. Antibiotic treatment is then administered orally, either simultaneously or 24 hours after C. difficile administration Animals are monitored for survival, weight variations, identification of C. difficile toxins in cecal content, and histologic damage to ceca as compared to animals treated with a prophylactic protocol using standard methods known in the art (see, for example, Anton P. M. et al., Abstract ID No. 102471, Publishing ID No. T1741, presented at the American Gastroenterological Association Meeting, May 17-22, 2003; Anton P. M. et al., Gastroenterology 124:A558, 2003).
Hamsters were infected with C. difficile, and at the time of infection, were also treated with vancomycin (50 mg/kg) or Rifalazil (2 mg/kg).

[1] = microgranulated formulation, systemic administration, relatively high doses (FIG. 1)

| SMILES | survival of hamsters infected with C. difficile (Rifalazil 2 mg/kg) | relapses of CDAD in in vivo animal experiments [1] | treatment of CDAD in in vivo animal experiments [1] | survival of hamsters infected with C. difficile (vancomycin 50 mg/kg) |
| --- | --- | --- | --- | --- |
| CO[C@H]1/C=C/O[C@@]2(C)Oc3c(C)c(O)c4c(=O)c(c5oc6cc(N7CCN(CC(C)C)CC7)cc(O)c6nc-5c4c3C2=O)NC(=O)/C(C)=C\C=C\[C@H](C)[C@H](O)[C@@H](C)[C@@H](O)[C@@H](C)[C@H](OC(C)=O)[C@@H]1C [Rifalazil, 3′-hydroxy-5′-(4-isobutyl-1-piperazinyl) benzoxazinorifamycin] | All animals treated with Rifalazil survived | no relapses were observed | effectively treated | – |
| CN[C@H](CC(C)C)C(=O)N[C@H]1C(=O)N[C@@H](CC(N)=O)C(=O)N[C@H]2C(=O)N[C@H]3C(=O)N[C@H](C(=O)N[C@H](C(=O)O)c4cc(O)cc(O)c4-c4cc3ccc4O)[C@H](O)c3ccc(c(Cl)c3)Oc3cc2cc(c3O[C@@H]2O[C@H](CO)[C@@H](O)[C@H](O)[C@H]2O[C@H]2C[C@](C)(N)[C@H](O)[C@H](C)O2)Oc2ccc(cc2Cl)[C@H]1O [vancomycin, reference compound] | – | – | – | eventually succumbed to the infection |

Source: patent US20110117154A1, “USE OF RIFALAZIL TO TREAT COLONIC DISORDERS” (ACTIVBIOTICS PHARMA, LLC, priority 2008, published 2011)
